# From US7728016B2, “Substituted 5-membered ring compounds and their use” (Vernalis (Cambridge) Limited, priority 2003, dated 2010)
# Target: T1, human full-length HSP90 (Homo sapiens, UniProt P08238)
# T1 construct: E. coli expressed human full-length HSP90 protein; made in house; host or cells: E. coli
# Assay: Fluorescence polarization assay (competitive displacement of probe RBT0045864-FAM from HSP90)
# Assay type: binding
# Conditions: fluorescence polarisation assay, E. coli expressed human full-length HSP90, probe 80 nM
# Excerpt: A fluorescence polarization assay was employed for the evaluation of some of the compounds of the Examples:
# Fluorescence Polarization Assay
# Fluorescence polarization {also known as fluorescence anisotropy} measures the rotation of a fluorescing species in solution, where the larger molecule the more polarized the fluorescence emission. When the fluorophore is excited with polarized light, the emitted light is also polarized. The molecular size is proportional to the polarization of the fluorescence emission.
# The fluoroscein-labelled probe—RBT0045864-FAM—
# [drawing 25] binds to HSP90 {full-length human, full-length yeast or N-terminal domain HSP90} and the anisotropy {rotation of the probe:protein complex} is measured.
# Test compound is added to the assay plate, left to equilibrate and the anisotropy measured again. Any change in anisotropy is due to competitive binding of compound to HSP90, thereby releasing probe.
# Chemicals are of the highest purity commercially available and all aqueous solutions are made up in AR water. • 1) Costar 96-well black assay plate #3915 • 2) Assay buffer of (a)100 mM Tris pH7.4; (b) 20 mM KCl; (c) 6 mM MgCl2. Stored at room temperature. • 3) BSA (bovine serum albumen) 10 mg/ml (New England Biolabs #B9001S) • 4) 20 mM probe in 100% DMSO stock concentration. Stored in the dark at RT. Working concentration is 200 nM diluted in AR water and stored at 4° C. Final concentration in assay 80 nM. • 5) E. coli expressed human full-length HSP90 protein, purified >95% (see, e.g., Panaretou et al., 1998) and stored in 50 μL aliquots at −80° C. Protocol • 1) Add 100 μl 1× buffer to wells 11A and 12A (=FP BLNK) • 2) Prepare assay mix—all reagents are kept on ice with a lid on the bucket as the probe is light-sensitive.
# • 3) Aliquot 100 μl assay mix to all other wells • 4) Seal plate and leave in dark at room temp for 20 minutes to equilibrate Compound Dilution Plate—1×3 Dilution Series • 1) In a clear 96-well v-bottom plate—{#VWR 007/008/257} add 10 μl 100% DMSO to wells B1 to H11 • 2) To wells A1 to A11 add 17.5 μl 100% DMSO • 3) Add 2.5 μl cpd to A1. This gives 2.5 mM {50×} stock cpd—assuming cpds 20 mM. • 4) Repeat for wells A2 to A10. Control in columns 11 and 12. • 5) Transfer 5 μl from row A to row B—not column 12. Mix well. • 6) Transfer 5 μl from row B to row C. […] In column 11 {provides standard curve} only add compound B11-H11. Add 2 μl of 100 mM standard cpd to wells B12-H12 {is positive control} • 13) The Z′ factor is calculated from zero controls and positive wells. It typically gives a value of 0.7-0.9.
# The compounds tested in the above assay were assigned to one of two activity ranges, namely A=<10 μM; B=>10 μM, and those assignments are reported above.
# T1 sequence (P08238 whole entry): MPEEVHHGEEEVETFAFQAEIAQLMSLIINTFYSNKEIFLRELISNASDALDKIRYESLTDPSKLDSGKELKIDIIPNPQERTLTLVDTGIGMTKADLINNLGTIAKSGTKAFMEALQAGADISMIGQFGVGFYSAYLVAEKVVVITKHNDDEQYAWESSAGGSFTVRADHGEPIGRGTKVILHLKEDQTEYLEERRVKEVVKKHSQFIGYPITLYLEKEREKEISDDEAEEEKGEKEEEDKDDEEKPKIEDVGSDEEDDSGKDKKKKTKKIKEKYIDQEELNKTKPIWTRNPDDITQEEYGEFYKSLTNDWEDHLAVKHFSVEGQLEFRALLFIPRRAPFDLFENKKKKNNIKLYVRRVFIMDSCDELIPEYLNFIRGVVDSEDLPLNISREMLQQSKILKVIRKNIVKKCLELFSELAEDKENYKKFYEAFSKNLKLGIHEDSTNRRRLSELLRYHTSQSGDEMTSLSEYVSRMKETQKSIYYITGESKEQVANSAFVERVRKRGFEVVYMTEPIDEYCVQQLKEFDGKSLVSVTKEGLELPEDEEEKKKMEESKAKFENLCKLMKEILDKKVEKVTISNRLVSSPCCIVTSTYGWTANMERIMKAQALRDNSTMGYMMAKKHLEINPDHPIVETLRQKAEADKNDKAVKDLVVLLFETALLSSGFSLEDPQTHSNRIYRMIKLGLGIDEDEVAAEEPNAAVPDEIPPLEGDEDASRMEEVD
row,Compound,IC50 [µM]
1,Oc1ccc(C2NN=C(Cc3ccccc3)S2)c(O)c1 (centres unmarked) [(ii)],> 10
2,Oc1ccc(-c2nnc(S)n2-c2cccc3ccccc23)c(O)c1 [(iii)],< 10
3,Cc1ccccc1-n1c(S)nnc1-c1ccc(O)cc1O [(iv)],< 10
4,COc1ccc(OC)c(-n2c(S)nnc2-c2ccc(O)cc2O)c1 [(v)],< 10
5,"CCOC(=O)c1nnn(-c2cc(Cl)c(O)cc2O)c1-c1ccc(F)cc1 [Example 3, 1-(5-Chloro-2,4-dihydroxy-phenyl)-5-(4-fluoro-phenyl)-1H-[1,2,3]triazole-4-carboxylic acid ethyl ester]",< 10

# The remaining lines, values ahead:
row,IC50 [µM],Compound
1,> 10,Oc1ccc(-c2csc(-c3c[nH]c4ccccc34)n2)c(O)c1 [(i)]
2,> 10,"O=C(O)c1nnn(-c2ccc(O)cc2O)c1-c1ccc(F)cc1 [Example 1, 1-(2,4-Dihydroxy-phenyl)-5-(4-fluoro-phenyl)-1H-[1,2,3]triazole-4-carboxylic acid]"
3,> 10,"CCOC(=O)c1nnn(-c2ccc(O)cc2O)c1-c1ccc(F)cc1 [Example 2, 1-(2,4-Dihydroxy-phenyl)-5-(4-fluoro-phenyl)-1H-[1,2,3]triazole-4-carboxylic acid ethyl ester]"
